Source: paper PMC9325490, “Overcoming Multidrug Resistance (MDR): Design, Biological Evaluation and Molecular Modelling Studies of 2,4‐Substituted Quinazoline Derivatives” (Chemmedchem, 2022)
Entries after “also recorded” stand apart in the source; their conditions may differ.

What was measured:
P-gp [1] = test: Apparent permeability (Papp, BA/AB) in Caco-2 cell monolayer; conditions: human, Caco-2, P app (BA/AB), two experiments in duplicate
Protocol: (§2) Compounds displaying a BA/AB >2 but not inducing an ATP cell depletion are classified as class IIB3 substrates.[43]
(§3) Caco‐2 cells were seeded onto a Millicell assay system (Millipore), in which a cell monolayer was set in between a filter cell and a receiver plate at a density of 20000 cells/well. The culture medium was replaced every 48 h, and the cells were kept for 21 days in culture. The trans epithelial electrical resistance (TEER) of the monolayers was measured daily, before and after the experiment, by using an epithelial voltohmmeter (Millicell‐ERS). Generally, TEER values greater than 1000 Ω for a 21 day culture are considered optimal.
(§4) After 21 days of Caco‐2 cell growth, the medium was removed from the filter wells and from the receiver plate, and they were filled with fresh Hank's balanced salt solution (HBSS) buffer (Invitrogen). This procedure was repeated twice, and the plates were incubated at 37 °C for 30 min. After the incubation time, the HBSS buffer was removed, and drug solutions and reference compounds were added to the filter well at a concentration of 100 μM, whereas fresh HBSS was added to the receiver plate. The plates were incubated at 37 °C for 120 min. Afterward, samples were removed from the apical (filter well) and basolateral (receiver plate) side of the monolayer to measure the permeability. The apparent permeability (Papp ), in units of nms‐1, was calculated by using the same equation reported above.

P-gp [2] = biological target: T1, P-gp (Homo sapiens, UniProt P08183); test: Calcein-AM transport inhibition in MDCK-MDR1 cells; conditions: for EC50 P-gp: MDCK-MDR1 cells overexpressing P-gp, calcein-AM, mean ±SEM of two experiments in triplicate
Protocol: (§5) The new compounds were tested for their activity toward P‐gp and the other two MDR sister proteins, MRP1 and BCRP, by measuring the inhibition of the transport of the profluorescent probe calcein‐AM (P‐gp and MRP1 substrate) in cells overexpressing P‐gp and MRP1 (MDCK‐MDR1 and MDCK‐MRP1 cells, respectively) and of the fluorescent probe Hoechst 33342 (BCRP substrate) in cells overexpressing BCRP (MDCK‐BCRP cells).
Each cell line (30,000 cells per well) was seeded into black CulturePlate 96/wells plate with 100 μL medium and allowed to become confluent overnight. 100 μL of test compounds, solubilized in culture medium, were added to monolayers, with final concentrations ranging from 0.1 to 100 μM. Thus, after a 30 min incubation time at 37 °C, calcein‐AM was added in 100 μL of Phosphate Buffered Saline (PBS) to the 96/wells plate to yield a final concentration of 2.5 μM; the plate was then incubated for 30 min. Each well was washed 3 times with ice cold PBS and saline buffer was added to each well and the plate read with Victor3 (PerkinElmer) at excitation and emission wavelengths of 485 nm and 535 nm, respectively. In these experimental conditions, calcein cell accumulation in the absence and in the presence of tested compounds was evaluated and fluorescence basal level was estimated with untreated cells. In treated wells, the increase of fluorescence with respect to basal level was measured. EC50 values were determined by fitting the fluorescence increase percentage versus log[dose].

P-gp [3] = biological target: T1, P-gp; test: ATP cell depletion (ATPlite assay) in MDCK-MDR1 cells; conditions: Yes/No
Protocol: In addition, the P‐gp interacting profile of the new compounds was evaluated by the combination of the inhibition of the efflux of calcein‐AM in MDCK‐MDR1 cells test with other two assays: the apparent permeability (Papp ) determination in the Caco‐2 cell monolayer, and the ATP cell depletion in MDCK‐MDR1 cells. […] This last information is completed by the ATP cell depletion assay, which measures the total ATP cell level in the MDCK cells overexpressing only P‐gp: in this setting, the observed effect can be mainly ascribed to the overexpressed transporter.[42]
The MDCK‐MDR1 cells seeded into 96‐well microplate in 100 μL of complete medium at a density 2×10^4 cells/well were incubated overnight (O/N) in a humidified atmosphere 5 % CO2 at 37 °C. The medium was removed and 100 μL of complete medium either alone or containing different concentrations of test compounds were added. The plate was incubated for 2 h in a humidified 5 % CO2 atmosphere at 37 °C. 50 μL of mammalian cell lysis solution was added to all wells and the plate shaken for five minutes in an orbital shaker. 50 μL of substrate solution was added to all wells and the plate shaken for five minutes in an orbital shaker. The plate was dark adapted for ten minutes and the luminescence was measured.

HT29 cells [4] = test: Kinetic parameters of doxorubicin efflux in HT29 cells
Protocol: (§6) Cells were collected and the intracellular drug content was measured fluorimetrically as detailed previously,[47] using a Synregy HTX 96‐well plate reader (Bio‐Tek Instruments, Winooski, VT). The results were expressed as nmol doxorubicin/mg cell proteins, according to a titration curve previously set. […] A second series of dishes, after the incubation with doxorubicin formulations under the same experimental conditions, were left for further 10 min at 37 °C, then washed and tested for the intracellular drug content. The difference of doxorubicin concentration between the two series, expressed as nmol doxorubicin extruded/min/mg cell protein was plotted versus the initial drugs’ concentration. Values were fitted to Michaelis‐Menten equation to calculate Vmax and Km, using the Enzfitter software (Biosoft Corporation, Cambridge, United Kingdom).[47]

HT29/DX cells [5] = test: Kinetic parameters of doxorubicin efflux in HT29/DX cells
Protocol: as §6

HT29/DX cells [6] = test: Intracellular doxorubicin accumulation in HT29/DX cells
Protocol: as §6

HT29 cells [7] = test: Co-administration assay with doxorubicin (MTT) in HT29 cells; type: cell-based
Protocol: (§1) The co‐administration assay with Doxorubicin was performed in MDCK‐MDR1, HT29 and HT29/DX cells at 48 h as reported with minor modifications.[49] […] On day 2, the tested drug was added alone to the cells at different concentrations (10 nM, 100 nM, 500 nM, 1 μM, 10 μM). On day 3, the medium was removed and the drug at the same concentrations was added alone and in co‐administration with 10 μM Doxorubicin to the cells. After the established incubation time with the tested drug, MTT (0.5 mg/mL) was added to each well, and after 3–4 h incubation at 37 °C, the supernatant was removed. The formazan crystals were solubilized using 100 μL of DMSO/EtOH (1 : 1), and the absorbance values at 570 and 630 nm were determined on the microplate reader Victor 3 from PerkinElmer Life Sciences.

HT29 cells [8] = test: Intracellular doxorubicin accumulation in HT29 cells; conditions: 24 h, doxorubicin 10 μM + compound 100 nM-10 μM
Protocol: as §6

HT29/DX cells [9] = test: Co-administration assay with doxorubicin (MTT) in HT29/DX cells; type: cell-based
Protocol: as §1

BCRP = biological target: T2, BCRP (Homo sapiens, UniProt Q9UNQ0); test: Hoechst 33342 transport inhibition in MDCK-BCRP cells; type: cell-based; conditions: MDCK-BCRP cells overexpressing BCRP, mean ±SEM
T2 construct: expressed in transfected cells; host or cells: MDCK-BCRP (Madin-Darby Canine Kidney, transfected); gift of Prof; P. Borst, NKI-AVL
T2 sequence (Q9UNQ0 1-655): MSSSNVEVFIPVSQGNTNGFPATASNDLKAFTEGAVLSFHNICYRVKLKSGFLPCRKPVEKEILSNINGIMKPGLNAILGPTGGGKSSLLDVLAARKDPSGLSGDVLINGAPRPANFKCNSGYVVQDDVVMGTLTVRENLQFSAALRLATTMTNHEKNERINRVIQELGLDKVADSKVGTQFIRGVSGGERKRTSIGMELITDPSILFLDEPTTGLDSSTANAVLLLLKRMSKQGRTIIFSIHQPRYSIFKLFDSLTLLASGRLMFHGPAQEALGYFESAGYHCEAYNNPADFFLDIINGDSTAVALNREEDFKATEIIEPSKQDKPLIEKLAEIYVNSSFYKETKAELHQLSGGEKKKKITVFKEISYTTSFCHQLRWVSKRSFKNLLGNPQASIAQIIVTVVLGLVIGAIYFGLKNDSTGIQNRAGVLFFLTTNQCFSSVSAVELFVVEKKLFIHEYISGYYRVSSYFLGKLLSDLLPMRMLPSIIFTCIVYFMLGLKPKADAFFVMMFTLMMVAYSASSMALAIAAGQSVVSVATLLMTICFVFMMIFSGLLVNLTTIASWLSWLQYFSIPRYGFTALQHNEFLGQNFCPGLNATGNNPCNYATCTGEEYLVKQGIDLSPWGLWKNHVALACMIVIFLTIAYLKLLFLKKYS
Protocol: Each cell line (30,000 cells per well) was seeded into black CulturePlate 96/wells plate with 100 μL medium and allowed to become confluent overnight. 100 μL of test compounds, solubilized in culture medium, were added to monolayers, with final concentrations ranging from 0.1 to 100 μM. After 30 min incubation time at 37 °C, Hoechst 33342 was added in 100 μL of Phosphate Buffered Saline (PBS) to yield a final concentration of 8 μM to the 96/wells plate and the plate incubated for 30 min. The supernatants were drained and the cells were fixed for 20 min under light protection using 100 μL per well of a 4 % PFA solution. Each well was washed 3 times with ice cold PBS and saline buffer added to each well and the plate read with Victor3 (PerkinElmer) at excitation and emission wavelengths of 340/35 nm and 485/20 nm, respectively. In these experimental conditions, Hoechst 33342 accumulation in the absence and in the presence of tested compounds was evaluated and fluorescence basal level was estimated with untreated cells. In treated wells the increase of fluorescence with respect to basal level was measured. EC50 values were determined by fitting the fluorescence increase percentage versus log[dose].

MRP1 = MRP1 (Homo sapiens, UniProt P33527); test: cell-based
Protocol: as §5
Each cell line (30,000 cells per well) was seeded into black CulturePlate 96/wells plate with 100 μL medium and allowed to become confluent overnight. 100 μL of test compounds, solubilized in culture medium, were added to monolayers, with final concentrations ranging from 0.1 to 100 μM. […] Each well was washed 3 times with ice cold PBS and saline buffer was added to each well and the plate read with Victor3 (PerkinElmer) at excitation and emission wavelengths of 485 nm and 535 nm, respectively. In these experimental conditions, calcein cell accumulation in the absence and in the presence of tested compounds was evaluated and fluorescence basal level was estimated with untreated cells. In treated wells, the increase of fluorescence with respect to basal level was measured. EC50 values were determined by fitting the fluorescence increase percentage versus log[dose].

Caco-2 cell monolayer = test: Apparent permeability (Papp, BA/AB) in Caco-2 cell monolayer; conditions: BA/AB ratio, two experiments in duplicate
Protocol: as §2, §3, §4

P-gp [10] = biological target: T1, P-gp; test: P-gp interacting profile (combination of calcein-AM, Papp and ATP cell depletion assays); conditions: classification from Papp, calcein-AM inhibition and ATP cell depletion
Protocol: In addition, the P‐gp interacting profile of the new compounds was evaluated by the combination of the inhibition of the efflux of calcein‐AM in MDCK‐MDR1 cells test with other two assays: the apparent permeability (Papp ) determination in the Caco‐2 cell monolayer, and the ATP cell depletion in MDCK‐MDR1 cells. […] This last information is completed by the ATP cell depletion assay, which measures the total ATP cell level in the MDCK cells overexpressing only P‐gp: in this setting, the observed effect can be mainly ascribed to the overexpressed transporter.[42] […] Compounds displaying a BA/AB >2 but not inducing an ATP cell depletion are classified as class IIB3 substrates.[43]

[11] = absence or presence of 10 μM compound 1 e
[12] = read-out: Km of doxorubicin efflux, absence or presence of 10 μM compound 1 e

T1 sequence (P08183 whole entry): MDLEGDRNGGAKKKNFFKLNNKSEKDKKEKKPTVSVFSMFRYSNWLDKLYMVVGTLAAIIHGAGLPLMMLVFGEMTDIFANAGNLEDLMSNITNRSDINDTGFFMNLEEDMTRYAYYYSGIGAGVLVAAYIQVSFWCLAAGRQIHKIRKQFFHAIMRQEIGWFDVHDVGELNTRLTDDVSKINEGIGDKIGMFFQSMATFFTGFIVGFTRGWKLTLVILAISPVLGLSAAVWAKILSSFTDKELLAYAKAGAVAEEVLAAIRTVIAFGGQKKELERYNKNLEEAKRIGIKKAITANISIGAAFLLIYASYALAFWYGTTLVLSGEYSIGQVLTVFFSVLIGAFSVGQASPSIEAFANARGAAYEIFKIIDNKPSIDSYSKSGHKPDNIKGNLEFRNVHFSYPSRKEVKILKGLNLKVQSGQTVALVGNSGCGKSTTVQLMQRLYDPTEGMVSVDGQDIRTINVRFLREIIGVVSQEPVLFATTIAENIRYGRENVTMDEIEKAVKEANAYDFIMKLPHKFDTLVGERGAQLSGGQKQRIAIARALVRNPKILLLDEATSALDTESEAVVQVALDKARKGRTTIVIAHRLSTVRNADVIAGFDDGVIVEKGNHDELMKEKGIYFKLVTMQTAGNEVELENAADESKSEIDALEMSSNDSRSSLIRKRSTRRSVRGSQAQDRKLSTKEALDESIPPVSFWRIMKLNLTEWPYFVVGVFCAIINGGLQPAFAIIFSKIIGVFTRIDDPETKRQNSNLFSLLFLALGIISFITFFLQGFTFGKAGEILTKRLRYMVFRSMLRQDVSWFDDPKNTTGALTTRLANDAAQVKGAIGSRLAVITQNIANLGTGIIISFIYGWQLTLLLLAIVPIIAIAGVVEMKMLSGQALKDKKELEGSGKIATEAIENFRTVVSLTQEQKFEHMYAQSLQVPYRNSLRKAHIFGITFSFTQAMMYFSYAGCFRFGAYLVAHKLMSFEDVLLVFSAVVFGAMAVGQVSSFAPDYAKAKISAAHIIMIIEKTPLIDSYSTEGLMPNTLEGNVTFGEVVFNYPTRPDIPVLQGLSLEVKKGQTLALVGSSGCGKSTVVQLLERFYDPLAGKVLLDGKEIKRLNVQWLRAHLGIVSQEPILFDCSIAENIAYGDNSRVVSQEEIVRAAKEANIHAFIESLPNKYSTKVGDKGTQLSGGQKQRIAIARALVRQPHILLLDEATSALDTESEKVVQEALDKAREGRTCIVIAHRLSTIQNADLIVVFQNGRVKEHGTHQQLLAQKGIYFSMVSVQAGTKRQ
Chain of MRP1 (P33527 whole entry): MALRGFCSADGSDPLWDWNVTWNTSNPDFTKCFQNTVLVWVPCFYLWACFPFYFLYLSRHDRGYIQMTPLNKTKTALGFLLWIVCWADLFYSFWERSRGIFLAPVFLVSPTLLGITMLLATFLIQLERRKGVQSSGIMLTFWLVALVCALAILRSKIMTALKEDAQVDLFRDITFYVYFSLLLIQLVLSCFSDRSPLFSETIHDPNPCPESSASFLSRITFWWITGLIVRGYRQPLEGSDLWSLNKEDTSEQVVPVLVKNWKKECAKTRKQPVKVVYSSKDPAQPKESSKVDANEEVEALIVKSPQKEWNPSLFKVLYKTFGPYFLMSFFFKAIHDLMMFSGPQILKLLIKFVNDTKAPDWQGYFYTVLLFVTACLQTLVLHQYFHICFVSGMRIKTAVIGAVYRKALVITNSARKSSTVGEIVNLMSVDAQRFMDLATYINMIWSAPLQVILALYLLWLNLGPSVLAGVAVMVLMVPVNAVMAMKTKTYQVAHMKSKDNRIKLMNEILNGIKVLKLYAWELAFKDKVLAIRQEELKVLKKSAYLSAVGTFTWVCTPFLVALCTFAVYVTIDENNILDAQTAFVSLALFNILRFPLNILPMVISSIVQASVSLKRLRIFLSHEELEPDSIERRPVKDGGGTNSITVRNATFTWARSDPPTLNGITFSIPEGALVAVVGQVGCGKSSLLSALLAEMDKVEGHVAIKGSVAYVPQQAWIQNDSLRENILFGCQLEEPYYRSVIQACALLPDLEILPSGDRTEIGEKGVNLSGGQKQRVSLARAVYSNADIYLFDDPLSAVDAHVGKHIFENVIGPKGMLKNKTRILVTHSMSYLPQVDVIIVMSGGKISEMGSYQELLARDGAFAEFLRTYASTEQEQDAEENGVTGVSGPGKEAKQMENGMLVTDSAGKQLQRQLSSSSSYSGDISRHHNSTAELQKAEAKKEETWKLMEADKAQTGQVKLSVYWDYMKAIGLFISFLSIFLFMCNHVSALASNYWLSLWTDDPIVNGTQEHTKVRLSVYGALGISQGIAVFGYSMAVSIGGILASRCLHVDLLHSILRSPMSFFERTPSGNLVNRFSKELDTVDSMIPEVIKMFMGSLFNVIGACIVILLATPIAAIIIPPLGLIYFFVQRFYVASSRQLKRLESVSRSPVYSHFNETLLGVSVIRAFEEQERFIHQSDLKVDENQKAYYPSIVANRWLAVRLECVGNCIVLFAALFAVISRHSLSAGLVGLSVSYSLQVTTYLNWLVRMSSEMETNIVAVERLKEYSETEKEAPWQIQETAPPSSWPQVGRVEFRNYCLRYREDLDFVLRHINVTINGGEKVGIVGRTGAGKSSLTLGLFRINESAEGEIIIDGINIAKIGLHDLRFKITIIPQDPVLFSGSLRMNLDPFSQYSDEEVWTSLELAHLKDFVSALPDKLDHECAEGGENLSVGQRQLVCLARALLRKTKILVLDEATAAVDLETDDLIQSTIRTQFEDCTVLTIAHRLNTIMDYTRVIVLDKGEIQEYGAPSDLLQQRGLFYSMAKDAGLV

| efflux ratio at 120 min, 100 μM (P-gp [1]) | EC50 (P-gp [2]) | ATP cell depletion (P-gp [3]) | SMILES | further results |
| --- | --- | --- | --- | --- |
| 32.9 | 110 ± 20 nM | No | COc1ccc(C(c2ccc(OC)cc2)c2nc(Nc3ccc(CCN4CCc5cc(OC)c(OC)cc5C4)cc3)c3ccccc3n2)cc1 [Compound 7 a, 2‐(Bis(4‐methoxyphenyl)methyl)‐N‐(4‐(2‐(6,7‐dimethoxy‐3,4‐dihydroisoquinolin‐2(1H)‐yl)ethyl)phenyl)quinazolin‐4‐amine] | – |
| 20 | – | – | c1ccc2c(-c3nc(N4CCOCC4)c4ccccc4n3)c3ccccc3cc2c1 [Compound 3 c, 4‐(2‐(Anthracen‐9‐yl)quinazolin‐4‐yl)morpholine] | EC50 P-gp (P-gp [2]): not active |
| 19.2 | 200 ± 40 nM | No | COc1cc2c(cc1OC)CN(CCc1ccc(Nc3nc(-c4c(OC)c(OC)cc5ccccc45)nc4ccccc34)cc1)CC2 [Compound 6 a, N‐(4‐(2‐(6,7‐Dimethoxy‐3,4‐dihydroisoquinolin‐2(1H)‐yl)ethyl)phenyl)‐2‐(2,3‐dimethoxynaphthalen‐1‐yl)quinazolin‐4‐amine] | – |
| – | – | – | COc1cccc2c1C(=O)c1c(O)c3c(c(O)c1C2=O)C[C@@](O)(C(=O)CO)C[C@@H]3O[C@H]1C[C@H](N)[C@H](O)[C@H](C)O1 [Doxo, doxorubicin] | Vmax of doxorubicin efflux (HT29 cells [4]; [11]): 3.15 ± 0.07 µmol/min; Km (HT29 cells [4]; [12]): 0.53 ± 0.06 µM; Vmax of doxorubicin efflux (HT29/DX cells [5]; [11]): 8.05 ± 0.64 µmol/min; Km (HT29/DX cells [5]; [12]): 0.52 ± 0.06 µM; intracellular doxorubicin retained, doxorubicin alone (HT29/DX cells [6]; HT29/DX cells compared with HT29 cells): retained a lower amount of doxorubicin; viable cells, doxorubicin alone (HT29 cells [7]; HT29 cells, doxorubicin 10 μM): significant decrease in viable cells |
| 5.4 | 6060 ± 1200 nM | No | COc1ccc2ccccc2c1-c1nc(N2CCN(C)CC2)c2ccccc2n1 [Compound 5 d, 2‐(2‐Methoxynaphthalen‐1‐yl)‐4‐(4‐methylpiperazin‐1‐yl)quinazoline] | – |
| – | – | – | COc1cc2c(cc1OC)CN(c1nc(/C=C/c3cc(OC)c(OC)c(OC)c3)nc3ccccc13)CC2 [Compound 1 e, (E)‐4‐(6,7‐Dimethoxy‐3,4‐dihydroisoquinolin‐2(1H)‐yl)‐2‐(3,4,5‐trimethoxystyryl)quinazoline] | effect on intracellular doxorubicin content (HT29 cells [8]): did not modify the intracellular drug content; effect on intracellular doxorubicin content (HT29/DX cells [6]; HT29/DX cells, 24 h, doxorubicin 10 μM + compound 100 nM-10 μM): progressively increased it; cell viability, compound alone (HT29 cells [7]; HT29 (doxorubicin-sensitive) cells): did not significantly reduce cell viability; cell viability, compound alone (HT29/DX cells [9]; HT29/DX (doxorubicin-resistant) cells): did not significantly reduce cell viability; viability with doxorubicin co-administration (HT29/DX cells [9]; HT29/DX cells, doxorubicin 10 μM + compound 10 μM): reduced at the same extent of doxorubicin‐sensitive cells |
| 3.8 | 9550 ± 1800 nM | No | COc1ccc(-c2nc(N3CCOCC3)c3ccccc3n2)c(OC)c1OC [Compound 4 c, 4‐(2‐(2,3,4‐Trimethoxyphenyl)quinazolin‐4‐yl)morpholine] | – |
| 8.4 | 160 ± 26 nM | No | COc1ccc(C(c2ccc(OC)cc2)c2nc(N3CCc4cc(OC)c(OC)cc4C3)c3ccccc3n2)cc1 [Compound 7 e, 2‐(Bis(4‐methoxyphenyl)methyl)‐4‐(6,7‐dimethoxy‐3,4‐dihydroisoquinolin‐2(1H)‐yl)quinazoline] | – |
| – | – | Yes^[e] | COc1cc2c(cc1OC)CN(CCc1ccc(NC(=O)c3cccc4c(=O)c5cccc(OC)c5[nH]c34)cc1)CC2 [elacr, elacridar, reference compound] | – |
| 6.9 | 960 ± 180 nM | No | COc1ccc(C(c2ccc(OC)cc2)c2nc(N3CCN(C)CC3)c3ccccc3n2)cc1 [Compound 7 d, 2‐(Bis(4‐methoxyphenyl)methyl)‐4‐(4‐methylpiperazin‐1‐yl)quinazoline] | EC50 (BCRP): 8620 ± 1600 nM; EC50 (MRP1): 43200 ± 8500 nM |
| > 20 | – | Yes^[d] | COc1cc2c(cc1OC)CN(CCc1ccc(NC(=O)c3cc(OC)c(OC)cc3NC(=O)c3cnc4ccccc4c3)cc1)CC2 [tariq, tariquidar, reference compound] | – |
| 10.5 | – | – | c1ccc(CCNc2nc(-c3c4ccccc4cc4ccccc34)nc3ccccc23)cc1 [Compound 3 b, 2‐(Anthracen‐9‐yl)‐N‐phenethylquinazolin‐4‐amine] | EC50 P-gp (P-gp [2]): not active; melting point: 236 to 238 °C (dec.) |
| 14.8 | 1410 ± 250 nM | No | COc1ccc(-c2nc(NCCc3ccccc3)c3ccccc3n2)c(OC)c1OC [Compound 4 b, N‐Phenethyl‐2‐(2,3,4‐trimethoxyphenyl)quinazolin‐4‐amine] | EC50 (MRP1): 52000 ± 10100 nM |
| 18.5 | 1140 ± 200 nM | No | COc1cc2c(cc1OC)CN(c1nc(-c3c4ccccc4cc4ccccc34)nc3ccccc13)CC2 [Compound 3 e, 2‐(Anthracen‐9‐yl)‐4‐(6,7‐dimethoxy‐3,4‐dihydroisoquinolin‐2(1H)‐yl)quinazoline] | – |

| SMILES | efflux ratio at 120 min, 100 μM (P-gp [1]) | EC50 (P-gp [2]) | ATP cell depletion (P-gp [3]) | further results |
| --- | --- | --- | --- | --- |
| COc1ccc(C(c2ccc(OC)cc2)c2nc(N3CCOCC3)c3ccccc3n2)cc1 [Compound 7 c] | < 2 | 2130 ± 400 nM | do not inducing ATP cell depletion and No | P app (BA/AB) (Caco-2 cell monolayer): 1.5; P-gp interacting profile (P-gp [10]): P‐gp inhibitor; also recorded: pure inhibitor |
